Marks after values point to notes of the source that are not given here.
Columns and labels:
[1] = molecular target: T1, porcine pancreatic α-amylase (Sus scrofa, UniProt P00690); assay: α-Amylase inhibitory activity (starch-iodine); format: biochemical
T1 construct: purchased Shanghai Yuanye Biotechnology Co. (Shanghai, China)
T1 sequence (P00690 16-511): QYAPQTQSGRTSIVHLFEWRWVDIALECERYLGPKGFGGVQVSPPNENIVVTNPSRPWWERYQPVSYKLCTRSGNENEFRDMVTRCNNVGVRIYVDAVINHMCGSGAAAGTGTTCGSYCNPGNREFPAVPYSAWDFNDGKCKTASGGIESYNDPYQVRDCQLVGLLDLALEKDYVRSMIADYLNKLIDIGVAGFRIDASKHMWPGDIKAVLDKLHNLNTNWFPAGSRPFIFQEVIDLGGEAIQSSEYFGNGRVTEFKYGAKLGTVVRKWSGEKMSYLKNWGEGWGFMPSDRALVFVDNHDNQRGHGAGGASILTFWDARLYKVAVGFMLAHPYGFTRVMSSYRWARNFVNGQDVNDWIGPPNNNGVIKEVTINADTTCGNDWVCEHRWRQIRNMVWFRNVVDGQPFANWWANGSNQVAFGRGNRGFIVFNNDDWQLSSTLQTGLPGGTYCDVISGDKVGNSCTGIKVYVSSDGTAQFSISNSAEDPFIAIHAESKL
Description: (§1) Butylated hydroxytoluene (BHT) and ethylene diamine tetraacetic acid (EDTA) were purchased from Sigma-Aldrich (Shanghai, China). […] Methanol (MeOH), ethanol (EtOH), and dichloromethane (DCM) were purchased from Tianjin Fuyu (Tianjin, China). Ammonium acetate (NH4Ac), iodine (I2), potassium iodide (KI), soluble-starch, acetic acid (AcOH), n-butanol (nBuOH), and silica sand were obtained from Guoyao (Shanghai, China). The products were purified by flash column chromatography on 200–300 mesh silica gel purchased from Xinnuo Huagong (Yantai, Shandong, China). Methanol and acetonitrile of the high-performance liquid chromatography (HPLC) grade were purchased from Thermo Fisher Scientific (Waltham, MA, USA). DMSO-D6 was purchased from J&K (Beijing, China).

[2] = Cupric reducing antioxidant capacity (CUPRAC); format: biochemical; details: main flavonoids (Table 5)
Description: The cupric ion reducing antioxidant capacity (CUPRAC) was measured according to the method of Drouet et al. with modifications. Briefly, 50 μL of the extract sample was mixed with 150 μL of the CUPRAC solution (composed of 10 mM CuCl2, 7.5 mM neocuproine, and 1 M NH4Ac buffer pH 7; ratio 1:1:1 (v/v/v)). After incubation for 15 min at room temperature, the absorbance value at 450 nm of the reaction mixture was measured. The results were reported as […] of Trolox equivalents (TE) per gram of extract (mg TE/g extract) (calibration curve from different concentrations: 0–70 μg/mL; Absorbance: y = 0.0279x + 0.0126, R² = 0.9997, Figure S2J).

[3] = Ferric reducing antioxidant power (FRAP); format: biochemical
Description: The measurement of FRAP was based on previous studies with slight modifications. A total of 180 uL of FRAP working solution (acetate buffer (pH 3.6): ferric chloride solution (20 mM): TPTZ solution (10 mM) = 10:1:1) was mixed with 20 μL of sample solution and incubated for 30 min at room temperature. The absorbance was measured at 593 nm. The standard curve was linear from 0 to 30 μg Trolox with an R^2 value of 0.9999 (Absorbance: y = 0.0943x + 0.0126, Figure S2I). The results are expressed as milligrams of TE/g dry weight.

[4] = molecular target: Saccharomyces cerevisiae α-glucosidase; assay: α-Glucosidase inhibitory activity assay (PNPG substrate); format: biochemical; details: main flavonoids and acarbose (Table 5)
Description: as §1
The α-glucosidase inhibition test was performed as previously described with some variations. PBS (0.1 M, pH = 6.8), α-glucosidase (5 U/mL), and PNPG (5 mM) were prepared and stored at 4 °C for further use. In total, 20 μL of different concentration sample solution (DMSO dissolved) or DMSO, 60 μL of PBS, and 20 μL of α-Glucosidase (0.5 U/mL) were added to a 96-well plate and incubated for 20 min at 37 °C. Then, 20 μL of PNPG (5 mM) solution was added and incubated for another 15 min at 37 °C. Subsequently, 80 μL of Na2CO3 (0.1 M) solution was added to terminate the reaction. […] Inhibition (%) was calculated based on absorbance with the following formula: Inhibitor (%) = (A0 − As)/A0 × 100%, where A0 is the absorbance of the blank group, and As is the absorbance of the test group. The IC50 values were calculated using GraphPad Prism 8.0 (GraphPad Software, Inc., La Jolla, CA, USA) to evaluate the α-glucosidase inhibition activity of the tested compounds.

[5] = ABTS radical scavenging assay; format: biochemical
Description: The ABTS radical scavenging activity of each fraction was measured based on the method with slight modifications. A 28 mM ABTS and a 9.6 mM potassium persulfate working solution were prepared, mixed in equal volumes, and the mixture was left to stand for 16 h at room temperature, protected from light. The working solution was diluted with EtOH to reach an absorbance of 0.70 ± 0.02 at 740 nm and used for further experiments. Different extracts or compounds (20 μL) concentrations were mixed with the working solution (180 μL). The mixture was incubated at room temperature for 15 min, and the absorbance was recorded at 734 nm (As). DMSO and ABTS reagents in the same volume were mixed to measure the absorbance as the control (A0). Then, the antioxidant activity of the mixture was determined by calculating the decrease using the following formula:ABTS radical inhibiting activity (%) = (A0 − As)/A0 × 100, where A0 is the absorbance of the control (untreated group), and As is the absorbance of the test sample. BHT and VC were used as the positive control.

[6] = DPPH radical scavenging assay; format: biochemical; details: main flavonoids and positive controls (Table 5)
Description: The scavenging ability of the free radical DPPH was investigated as described with slight modification. The sample solution (100 μL) and DPPH reagent (0.11 mg/mL, 100 μL) were mixed and incubated (30 min) at room temperature and in darkness. Then, a multi-detection microplate reader was used to measure the absorbance at 517 nm (As). The control group was mixed with DMSO and DPPH reagent in the same volume (A0). A formula was used to calculate the DPPH radical scavenging activity:DPPH radical scavenging activity (%) = [(A0 − As)/A0] × 100, where A0 is the absorbance of the control (untreated group), and As is the absorbance of the test sample. BHT and VC were used as the positive control.

[7] = Metal chelating activity on ferrous ions (ferrozine); format: biochemical; details: for Metal Chelating: main flavonoids (Table 5)
Description: The iron-chelating activity of each fraction was estimated by the method described by Sapatinha et al. with modifications. Briefly, 50 μL of each sample solution and 50 μL of 1 mM FeCl2 were mixed. Then, the reaction was initiated by adding 100 μL of 2.5 mM ferrozine solution. The mixture was kept at room temperature for 10 min. The absorbance of the resulting solution was measured at 562 nm. The results are expressed as milligrams of ethylenediaminetetraacetic acid (EDTA) equivalent per gram of extract (mg EDTAE/g extract) (calibration curve from different concentrations: 0–55 μg/mL; Absorbance: y = −0.0477x + 3.0616, R² = 0.9966, Figure S2K).

α-amylase = molecular target: α-amylase; parameters: method as in PMID 32344340; details: previously reported; cited from earlier work
[8] = main flavonoids and positive control (Table 5)
[9] = main flavonoids and positive controls (Table 5)
[10] = solvent fractions and positive control, Trolox equivalent
[11] = solvent fractions and positive controls (Table 3 and text)

| IC50 [1] [µM] | IC50 [4] [µM] | ABTS IC50 [5, 9] | DPPH IC50 [6] | ABTS IC50 [5, 11] | SMILES | CUPRAC [2] | FRAP [3, 8] | Metal Chelating [7] | Fe2+ chelating capacity [7] [mg EDTA/g] | α-amylase inhibitory activity IC50 (α-amylase) [mg/L] | FRAP [3, 10] |
| --- | --- | --- | --- | --- | --- | --- | --- | --- | --- | --- | --- |
| 1740 ± 40 | 77.5 ± 4.84 | 461.00 ± 11.04 ^b μg/mL | 4885.33 ± 56.01 ^b μM |  | O=c1cc(-c2ccc(O)cc2)oc2cc(O[C@@H]3O[C@H](CO)[C@@H](O)[C@H](O)[C@H]3O)cc(O)c12 [Apigenin-7-O-Glucoside] | 33.45 ± 0.51 ^g mg TE/g | 25.90 ± 0.49 ^i mg TE/g | 5.69 ± 0.19 ^h mg EDTAE/g |  |  |  |
|  | 80 ± 0.85 | 223.63 ± 10.35 ^c μg/mL | 1292.00 ± 31.00 ^d μM |  | O=c1cc(-c2ccc(O)cc2)oc2cc(O)cc(O)c12 [Apigenin] | 76.44 ± 1.83 ^f mg TE/g | 59.41 ± 0.24 ^h mg TE/g | 54.20 ± 1.28 ^c mg EDTAE/g | 54.20 |  |  |
|  |  | 5.72 ± 0.10 ^h,i μg/mL | 39.13 ± 0.93 ^g μM | 3.79 ± 0.04 ^l μg/mL | Cc1cc(C(C)(C)C)c(O)c(C(C)(C)C)c1 [BHT, Butylated hydroxytoluene, reference compound] |  | 406.39 ± 4.65 ^d mg TE/g |  |  |  | 406.39 mg TE/g |
| 1860 ± 20 | 39.8 ± 1.05 | 46.64 ± 1.24 ^d μg/mL | 848.23 ± 143.61 ^e μM |  | COc1cc(-c2cc(=O)c3c(O)cc(O[C@@H]4O[C@H](CO)[C@@H](O)[C@H](O)[C@H]4O)cc3o2)ccc1O [Chrysoeriol-7-O-glucosid] | 495.51 ± 6.64 ^d mg TE/g | 203.35 ± 6.33 ^f mg TE/g | 8.22 ± 0.84 ^g mg EDTAE/g |  |  |  |
|  |  | 16.69 ± 0.55 ^f μg/mL | 580.10 ± 35.54 ^f μM |  | COc1cc(-c2cc(=O)c3c(O)cc(O)cc3o2)ccc1O [Chrysoeriol] | 947.43 ± 5.72 ^b mg TE/g | 337.96 ± 0.88 ^e mg TE/g | 36.49 ± 0.22 ^d mg EDTAE/g | 36.49 |  |  |
|  | 104 ± 5.75 | 6.88 ± 0.05 ^h μg/mL | 12.47 ± 0.08 ^h μM |  | O=c1cc(-c2ccc(O)c(O)c2)oc2cc(OC3OC(CO)C(O)C(O)C3OC3OCC(O)(CO)C3O)cc(O)c12 (stereo not drawn) [Graveobioside A] | 887.17 ± 8.95 ^c mg TE/g | 882.04 ± 0.43 ^b mg TE/g | 89.98 ± 0.42 ^a mg EDTAE/g |  |  |  |
|  | 104 ± 1.85 | 29.43 ± 1.33 ^e μg/mL | 3266.33 ± 365.08 ^c μM |  | COc1cc(-c2cc(=O)c3c(O)cc(OC4OC(CO)C(O)C(O)C4OC4OCC(O)(CO)C4O)cc3o2)ccc1O (stereo not drawn) [Graveobioside B] | 328.10 ± 14.10 ^e mg TE/g | 166.87 ± 2.97 ^g mg TE/g | 21.32 ± 1.51 ^e mg EDTAE/g |  |  |  |
|  | 49.9 ± 2.85 | 9.41 ± 0.42 ^g μg/mL | 9.28 ± 0.06 ^i μM |  | O=c1cc(-c2ccc(O)c(O)c2)oc2cc(O[C@@H]3O[C@H](CO)[C@@H](O)[C@H](O)[C@H]3O)cc(O)c12 [Luteolin-7-O-glucoside] | 955.05 ± 3.64 ^b mg TE/g | 830.71 ± 8.52 ^c mg TE/g | 8.51 ± 0.21 ^g mg EDTAE/g |  |  |  |
| 2110 ± 10 | 58.8 ± 2.97 | 4.58 ± 0.02 ^i,j μg/mL | 4.65 ± 0.16 ^j μM |  | O=c1cc(-c2ccc(O)c(O)c2)oc2cc(O)cc(O)c12 [Luteolin] | 1502.63 ± 15.92 ^a mg TE/g | 1025.12 ± 10.78 ^a mg TE/g | 88.44 ±0.64 ^b mg EDTAE/g | 88.44 |  |  |
|  |  | 3.79 ± 0.04 ^j μg/mL | 5.32 ± 0.11 ^j μM | 5.72 ± 0.10 ^l μg/mL | O=C1O[C@H]([C@@H](O)CO)C(O)=C1O [VC, ascorbic acid, reference compound] |  |  |  |  |  | 406.39 ± 4.65 ^d mg TE/g |

| SMILES | IC50 [1] [µM] | IC50 [4] [µM] | ABTS IC50 [5, 9] | DPPH IC50 [6] | ABTS IC50 [5, 11] | CUPRAC [2] | FRAP [3, 8] | Metal Chelating [7] | Fe2+ chelating capacity [7] [mg EDTA/g] | α-amylase inhibitory activity IC50 (α-amylase) [mg/L] | FRAP [3, 10] |
| --- | --- | --- | --- | --- | --- | --- | --- | --- | --- | --- | --- |
| O=c1cc(-c2ccc(O)cc2)oc2cc(O[C@@H]3O[C@H](CO)[C@@H](O)[C@H](O)[C@H]3O[C@@H]3OC[C@](O)(CO)[C@H]3O)cc(O)c12 [Apiin] |  | 199 ± 14.9 | 1055.33 ± 24.68 ^a μg/mL | 7686.33 ± 200.18 ^a μM |  | 25.26 ± 0.18 ^g mg TE/g | 5.97 ± 1.49 ^j mg TE/g | 17.15 ± 1.37 ^f mg EDTAE/g |  | 1084 |  |
